Reference: patent publication US20250042891A1, “Compound containing structure of a heteroaromatic ring, pharmaceutical composition thereof and application thereof” (SHANGHAI YINGLI PHARMACEUTICAL CO., LTD, priority 2023, published 2025)

Key:
HCC1395 = experiment: CTG assay for proliferation inhibition of cell lines; assay type: cell-based; conditions: HCC1395, 7 days, CellTiter Glo
Protocol: (§1) The assay was conducted on either 384-well plates or 96-well plates. The procedures are as follows:
(§2) The cell suspensions were added to 384- or 96-well plates (384-well plate: 50 μL; 96-well plate: 100 μL) except for peripheral wells. The plates were incubated in a carbon dioxide incubator overnight, HCC1395, HCC1428 and NCI-H460 were placed in a carbon dioxide incubator of 5%, […] overnight. Prepared compounds (10 concentration gradients by serial 3-fold dilution) were added to the wells using the HPD300 micro-dosing instrument. The cell plates were incubated in a carbon dioxide incubator for 7 days. HCC1395, HCC1428 and NCI-H460 were incubated in a 5%, 37° CO2 incubator. On the day of plate measurement, 384- or 96-well plates were first equilibrated at room temperature for 10-30 minutes, then to the 384- or 96-well plate was added CellTiter Glo reagent (384-well plate: 25 μL; 96-well plate: 100 μL), shaken for 10 minutes away from light, and incubated for 10 minutes. The incubated plates were placed into Victor NIVO reader plates, and the pharmacodynamic inhibition curves were plotted and IC50 values were calculated using XLFit.

NCI-H460 = experiment: as above; assay type: cell-based; conditions: NCI-H460, 7 days, CellTiter Glo
Protocol: as §1, §2

HCC1428 = experiment: as above; assay type: cell-based; conditions: HCC1428, 7 days, CellTiter Glo
Protocol: as §1, §2

PARG (389-976) = PARG (389-976) (Homo sapiens (Human), UniProt Q86W56); experiment: PARG enzyme inhibition assay (TR-FRET); assay type: biochemical
PARG (389-976), sequence (Q86W56 389-976): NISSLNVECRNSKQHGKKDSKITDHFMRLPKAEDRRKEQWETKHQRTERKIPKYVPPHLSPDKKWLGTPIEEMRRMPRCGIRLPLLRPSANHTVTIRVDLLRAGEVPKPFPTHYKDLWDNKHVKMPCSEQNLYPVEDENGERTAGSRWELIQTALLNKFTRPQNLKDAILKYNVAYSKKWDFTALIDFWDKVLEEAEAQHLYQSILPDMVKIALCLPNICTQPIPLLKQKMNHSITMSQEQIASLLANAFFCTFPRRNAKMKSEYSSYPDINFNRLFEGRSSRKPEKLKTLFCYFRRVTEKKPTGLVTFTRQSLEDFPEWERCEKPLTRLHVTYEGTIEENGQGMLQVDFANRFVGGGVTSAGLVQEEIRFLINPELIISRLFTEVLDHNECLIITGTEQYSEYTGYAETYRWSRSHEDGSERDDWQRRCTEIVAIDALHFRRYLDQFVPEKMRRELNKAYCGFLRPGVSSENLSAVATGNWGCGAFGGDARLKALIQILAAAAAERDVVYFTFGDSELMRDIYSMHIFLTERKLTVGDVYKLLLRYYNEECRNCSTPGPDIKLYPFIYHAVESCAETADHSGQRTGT
Protocol: PARG in vitro assays were conducted in standard 384-well plates in a total volume of 15 μL. 5 μL of PARG (389-976) (manufactured by Chempartner Chemical Co., Ltd.) in buffer (50 mM Tris-HCL 7.5, 30 mM KCl, 1 mM EDTA, 3 mM DTT, tween-20 0.01%, BSA 0.025%) was added at a final concentration of 1.5 pM to the 384-well plates containing the compounds to be tested, which was incubated for 30 min at room temperature. To the above mixture was added 5 μL Bio PARylated His-TEV-PARP1(2-1014) substrate (manufactured by Chempartner Chemical Co., Ltd.) at a final concentration of 12 nM, after addition, the resulting mixture was incubated for 30 minutes at room temperature. Then to the mixture was added detection reagent (5 μL) which was buffered with 50 mM Tris-HCL 7.5, 30 mM KCl, 1 mM EDTA, 3 mM DTT, tween-20 0.01%, BSA 0.025%, and consisted of 3 μM of compound PDD00017273 and 9 nM Mab anti-6HIS XL665 (Cisbio: 61HISXLA) and 0.9 nM streptavidin affinity terbium cryptate (Cisbio:610SATLA), all at 3× working concentrations (final concentrations of 1 μM, 3 nM and 0.3 nM, respectively). After 120 min incubation in the dark at room temperature, TR-FRET signals were measured at Ex 340 and Em 665 and Em 615. The ratio for each well was calculated as Em 665/Em 615 and the compound inhibition rate was calculated based on the obtained data.

[1] = class symbol, Bio PARylated His-TEV-PARP1 substrate, TR-FRET
[2] = numeric value in parentheses under the class symbol

Row | Compound | IC50 (HCC1395; Homo sapiens, 168 h) [µM] | IC50 (NCI-H460; Homo sapiens, 168 h) [µM] | IC50 (HCC1428; Homo sapiens, 168 h) [µM] | IC50 (PARG (389-976); [1]) [nM] | IC50 (PARG (389-976); [2]) [nM] | IC50 (HCC1395) [µM] | IC50 (NCI-H460) [µM] | IC50 (HCC1428) [µM]
1 | CC(C)C(=O)N1CCN(c2cc(S(=O)(=O)NC3(C#N)CC3)cc3c2cnn3-c2nnc(C(F)F)s2)CC1 [1′, reference compound] | 1.29 | 0.796 | 1.38 | 1 to 10 | 1.9 |  |  | 
2 | Cn1nc(-c2nnc(C(F)F)s2)c2cc(S(=O)(=O)NC3(C#N)CC3)cc(C3=CCN(S(=O)(=O)C4CCOCC4)CC3)c21 [Compound 5] |  |  |  | < 1 | 0.33 | 0.222 | 0.183 | 0.132
3 | CC(C)S(=O)(=O)c1ccc(-c2cc(S(=O)(=O)NC3(C#N)CC3)cc3c(-c4nnc(C(F)F)s4)nn(C)c23)cc1 [Compound 9] |  |  |  | 1 to 10 |  | 0.197 | 0.147 | 1.17
4 | Cn1nc(-c2nnc(C(F)F)s2)c2cc(S(=O)(=O)NC3(C#N)CC3)cc(C3=CCN(S(=O)(=O)C4CCC4)CC3)c21 [Compound 12] | 0.169 | 0.148 | 0.151 | < 1 |  |  |  | 
5 | Cn1nc(-c2nnc(C(F)F)s2)c2cc(S(=O)(=O)NC3(C#N)CC3)cc(C3=CCN(S(=O)(=O)C4(C)CC4)CC3)c21 [Compound 14] | 0.126 | 0.122 | 0.399 | < 1 |  |  |  | 
6 | CC(C)S(=O)(=O)N1CC=C(c2cc(S(=O)(=O)NC3(C#N)CC3)cc3c(-c4nnc(C(F)(F)F)s4)nn(C)c23)CC1 [Compound 15] |  |  |  | < 1 |  | 0.0955 | 0.0561 | 0.117
7 | CC(C)S(=O)(=O)N1CC=C(c2cc(S(=O)(=O)NC3(CF)CC3)cc3c(-c4nnc(C(F)F)s4)nn(C)c23)CC1 [Compound 18] |  |  |  | < 1 | 0.12 | 0.0423 | 0.0408 | 0.215
8 | CC(C)S(=O)(=O)N1CC=C(c2cc(S(=O)(=O)NC3(C)CC3)cc3c(-c4nnc(C(F)F)s4)nn(C)c23)CC1 [Compound 19] |  |  |  | < 1 | 0.12 | 0.0532 | 0.0414 | 0.196
9 | Cn1nc(-c2nnc(C(F)F)s2)c2cc(S(=O)(=O)NC3(C#N)CC3)cc(C3=CCN(S(=O)(=O)C4CNC4)CC3)c21 [Compound 20] |  |  |  | < 1 | 0.06 | 3.95 | 2.81 | 3.02
10 | Cn1nc(-c2nnc(C(F)F)s2)c2cc(S(=O)(=O)NC3(C#N)CC3)cc(C3=CCN(S(=O)(=O)C4COC4)CC3)c21 [Compound 22] |  |  |  | < 1 |  | 0.605 | 0.714 | 1.09
11 | COCC(C)S(=O)(=O)N1CC=C(c2cc(S(=O)(=O)NC3(C#N)CC3)cc3c(-c4nnc(C(F)F)s4)nn(C)c23)CC1 (stereo not drawn) [Compound 23] |  |  |  | < 1 |  | 0.183 | 0.124 | 0.466
12 | CC(C)S(=O)(=O)c1ccc(-c2cc(S(=O)(=O)NC3(C#N)CC3)cc3c(-c4nnc(C(F)F)s4)nn(C)c23)cn1 [Compound 24] |  |  |  | < 1 |  | 0.65 | 0.493 | 0.578
13 | CC(C)[S+]([O-])N1CC=C(c2cc(S(=O)(=O)NC3(C#N)CC3)cc3c(-c4nnc(C(F)F)s4)nn(C)c23)CC1 (stereo not drawn) [Compound 25] |  |  |  | < 1 | 0.34 | 0.206 | 0.185 | 0.152
14 | CC(C)S(=O)(=O)N1CC=C(c2cc(S(=O)(=O)NC3(C#N)CC3)cc3c(-c4nnc(C(F)F)s4)nn(CCN(C)C)c23)CC1 [Compound 26] |  |  |  | < 1 | 0.16 |  | 0.139 | 0.0865
15 | CC(C)[S+]([O-])C1CC=C(c2cc(S(=O)(=O)NC3(C#N)CC3)cc3c(-c4nnc(C(F)F)s4)nn(C)c23)CC1 (stereo not drawn) [Compound 30] |  |  |  | < 1 | 0.61 | 0.787 | 0.656 | 0.45
16 | CC(C)S(=O)(=O)C1CC=C(c2cc(S(=O)(=O)NC3(C#N)CC3)cc3c(-c4nnc(C(F)F)s4)nn(C)c23)CC1 (stereo not drawn) [Compound 31] |  |  |  | 1 to 10 | 1.14 | 0.641 | 0.457 | 0.507
